Results as given in ChEMBL document CHEMBL3137440, “DNDi T. cruzi fenarimol series dataset from which preclinical candidate EPL-BS0967 was identified (see also related datasets: CHEMBL3137386 and CHEMBL2448688)”.
Values after ≈ are worked out from the molar mass of the structure shown.

What was measured:
Trypanosoma cruzi [1] = assay: (§1) DNDI: Chagas in Vitro; format: functional, Tulahuen C4 (LacZ); settings: Trypanosoma cruzi, Tulahuen C4 (LacZ)
Trypanosoma cruzi [2] = assay: as §1; format: functional, organism-based, Tulahuen C4 (LacZ); settings: Trypanosoma cruzi, Tulahuen C4 (LacZ)
[3] = DNDI: Cytotoxicity against L-6 rat myoblasts from skeletal musclE; settings: L6 rat skeletal muscle myoblasts, IC50
in vitro [4] = settings: human, microsomes
[5] = DNDI: Lipophilicity (gLogD) at pH 3; settings: buffer
in vitro [6] = settings: human, microsomes; remark: listed apart in the source
[7] = DNDI: Solubility in phosphate buffer at pH 6.5 determined by nephelometry
Cytochrome P450 3A4 = Cytochrome P450 3A4 (Homo sapiens, UniProt P08684)
[8] = DNDI: Lipophilicity (gLogD) at pH 7.4; settings: buffer
in vitro [9] = settings: human, microsomes; remark: listed apart in the source
[10] = DNDI: Solubility in 0.01M HCl at pH 2 determined by nephelometry

Cytochrome P450 3A4, sequence (P08684 whole entry): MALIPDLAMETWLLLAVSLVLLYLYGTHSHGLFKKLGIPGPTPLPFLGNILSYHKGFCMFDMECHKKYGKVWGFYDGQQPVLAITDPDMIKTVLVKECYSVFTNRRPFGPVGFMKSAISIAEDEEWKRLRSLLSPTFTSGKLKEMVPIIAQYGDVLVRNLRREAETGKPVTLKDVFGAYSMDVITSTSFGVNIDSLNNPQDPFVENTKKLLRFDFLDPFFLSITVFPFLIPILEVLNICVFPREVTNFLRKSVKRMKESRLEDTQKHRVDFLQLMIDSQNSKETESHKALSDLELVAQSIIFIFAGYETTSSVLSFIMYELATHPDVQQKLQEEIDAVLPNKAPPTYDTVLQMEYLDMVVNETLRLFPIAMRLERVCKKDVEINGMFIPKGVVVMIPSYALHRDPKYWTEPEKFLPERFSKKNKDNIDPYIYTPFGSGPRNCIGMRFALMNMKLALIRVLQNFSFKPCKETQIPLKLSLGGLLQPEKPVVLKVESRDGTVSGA

SMILES	IC90 (Trypanosoma cruzi [1]) [nM]	IC50 (Trypanosoma cruzi [2]) [nM]	IC50 [3] [nM]	half-life (in vitro [4]) [min]	chromatographic logD ([5]; pH 3)	hepatic extraction ratio (in vitro [6])	solubility kinetic [7] [µg/mL]	IC50 (Cytochrome P450 3A4) [nM]	chromatographic logD ([8]; pH 7.4)	microsomal CLint (in vitro [9]) [µL/min/mg]	solubility kinetic [10] [µg/mL]	half-life (in vitro [4]; t (1 / 2)) [min]	chromatographic logD ([5]; pH 3, logD)	chromatographic logD ([8]; pH 7.4, logD)	microsomal CLint (in vitro [9]; CLint) [µL/min/mg]	hepatic extraction ratio (in vitro [6]; EH)
CC(C)(C)N1CCC(N(c2ccc(C(F)(F)F)cc2)c2cccnc2)CC1	1070	603	–	–	–	–	–	–	–	–	–	–	–	–	–	–
Cc1ccc(CN2CCC(N(c3ccc(C(F)(F)F)cc3)c3cccnc3)CC2)cc1	> 100	67	45600	–	–	–	–	–	–	–	–	–	–	–	–	–
CN(C)S(=O)(=O)c1cccc(N2CCC(N(c3ccc(C#N)cc3)c3cccnc3)CC2)c1	11	6	–	3.4	3.6	0.97	< 1.6	6000	3.7	504	50 (≈ 108 µM)	–	–	–	–	–
FC(F)(F)c1ccc(N(c2cccnc2)C2CCN(Cc3cccc(C(F)(F)F)c3)CC2)cc1	72	38	52100	–	–	–	3.1 (≈ 6.47 µM)	–	–	–	> 100	26	2.5	> 5.3	66	–
CC(C)(O)CN1CCC(N(c2ccc(C(F)(F)F)cc2)c2cccnc2)CC1	30	11	–	–	–	–	–	–	–	–	–	–	–	–	–	–
FC(F)(F)c1ccc(N(c2cccnc2)C2CCN(c3ccccc3C(F)(F)F)CC2)cc1	36	15	–	–	–	–	–	–	–	–	–	–	–	–	–	–
Fc1cnc(N2CCC(N(c3ccc(C(F)(F)F)cc3)c3cccnc3)CC2)nc1	28	22	53100	49	4.2	–	< 1.6	–	4.9	36	> 100	–	–	–	–	–
O=C(c1c(F)cccc1F)N1CCC(N(c2ccc(C(F)(F)F)cc2)c2cccnc2)CC1	9	2	48900	–	–	–	–	–	–	–	–	–	–	–	–	–
N#Cc1cc(C(F)(F)F)ccc1N1CCC(N(c2ccc(C(F)(F)F)cc2)c2cccnc2)CC1	11	7	24300	32.8	5.2	0.75	< 1.6	> 20000	> 5.3	52.9	12.5 (≈ 25.5 µM)	–	–	–	–	–
Cn1nc(C2CC2)cc1N1CCC(N(c2ccc(C(F)(F)F)cc2)c2cccnc2)CC1	13.5	7	30000	14.6	4.6	0.87	< 1.6	> 20000	4.8	118	50 (≈ 113 µM)	–	–	–	–	–
CC(C)(C)OC(=O)N1CCC(N(c2ccc(Cl)cc2)c2cccnc2)CC1	3.26	1.03	52800	–	–	–	–	–	–	–	–	–	–	–	–	–
CC(C)(C)OC(=O)N1CCC(N(c2ccc(C(F)(F)F)cc2)c2cccnc2)CC1	9.9	5.12	22200	–	–	–	–	–	–	–	–	–	–	–	–	–
Fc1ccccc1CN1CCC(N(c2ccc(C(F)(F)F)cc2)c2cccnc2)CC1	40	21	–	–	–	–	–	–	–	–	–	–	–	–	–	–
Cc1cccc(CN2CCC(N(c3ccc(C(F)(F)F)cc3)c3cccnc3)CC2)c1	79	44	42900	–	–	–	–	–	–	–	–	–	–	–	–	–
CN(C)S(=O)(=O)c1ccccc1N1CCC(N(c2ccc(C#N)cc2)c2cccnc2)CC1	28	10	–	–	–	–	–	–	–	–	–	–	–	–	–	–
COc1cccc(CN2CCC(N(c3ccc(C(F)(F)F)cc3)c3cccnc3)CC2)c1	90	56	36800	–	–	–	–	–	–	–	–	–	–	–	–	–
FC(F)(F)c1ccc(N(c2cccnc2)C2CCN(c3nccs3)CC2)cc1	31	–	41500	10.8	3.1	–	1.6 (≈ 3.96 µM)	–	4.3	161	> 100	–	–	–	–	–
N#Cc1cc(C(F)(F)F)ccc1N1CCC(N(c2ccc(Cl)cc2)c2cccnc2)CC1	10.5	5	17700	16.8	4.7	0.85	< 1.6	> 20000	> 5.3	103	25 (≈ 54.7 µM)	–	–	–	–	–
CC(=O)C(C)N1CCC(N(c2ccc(C(F)(F)F)cc2)c2cccnc2)CC1 (centres undefined)	31	15	69000	–	–	–	6.3 (≈ 16.1 µM)	5000	–	–	> 100	21.5	1.3	4.2	80.7	0.82
CC(C)C(O)CN1CCC(N(c2ccc(C(F)(F)F)cc2)c2cccnc2)CC1 (centres undefined)	> 10000	36	51500	–	–	–	25 (≈ 61.4 µM)	> 20000	–	–	> 100	29.8	1.6	3.9	58.2	0.76
